Results: patent publication US8178579B2, “Dioxanes and uses thereof” (President and Fellows of Harvard College, priority 2001, dated 2012)
“Also recorded” adds a separate entry of the source.

Key:
histone deacetylation = experiment: acetylated lysine / acetylated histone in cells (AcLysine cytoblot, immunofluorescence, Western blot); type: cell-based, human; details: A549 (also BS-C-1) cells, tubacin, niltubacin 2 μM, histacin 20 μM, library ~2-5 μM, 18 h
Protocol: (§1) A549 cells were seeded at a density of 4,000 cells/50 μl in DMEM+ in white tissue culture-treated 384-well plates (Nalge Nunc) using a Multidrop 384 liquid dispenser (Labsystems). Library small molecules were pinned twice (100-150 nl/pin) from ˜1 mM stock solutions (DMSO) and incubated for 18 hours. For the ITSA1+AcTubulin assay, ITSA1 (50 μM) was added four hours after pin-transfer of library molecules. Media was aspirated with a 16-channel wand. For the acetylated α-tubulin cytoblot (AcTubulin), 40 μl/well of fixation solution (3.7% formaldehyde (1:10 from 37% stock) in Tris-buffered saline (TBS, 0.15 M NaCl, 0.02 M Tris-Cl, pH 7.4) was added and plates incubated for twenty minutes at room temperature. After aspiration, 30 μl 100% methanol (−20° C.) was added and incubated for five minutes at room temperature. After aspirating and washing three times with 90 μl of antibody dilution buffer (ADB, TBS/2% bovine serum albumin, 0.1% TritonX-100) the wells were blocked for twenty minutes in ADB. After aspirating, 20 μl/well of ADB containing anti-acetylated α-tubulin antibody (mouse; 1:1000) and anti-mouse IgG horseradish peroxidase (HRP)-conjugated antibody (1:750) was added and incubated overnight (4° C.). For the anti-acetyl lysine cytoblot (AcLysine), 40 μl/well of fixation solution (95% ethanol/5% acetic acid, −20° C.) was added and plates incubated for five minutes at room temperature. Wells were aspirated, washed, and blocked in ADB as for the AcTubulin protocol. After aspirating, 20 μl/well of ADB containing anti-acetylated lysine (rabbit; 1:375) and anti-rabbit IgG-HRP conjugated antibody (1:750) was added and incubated overnight (4° C.). For the anti-acetylated histone H3 (AcHistH3) and anti-acetylated histone H4 (AcHistH4) cytoblots, cells were fixed, washed, and blocked in ADB as for the AcLysine cytoblot. After aspirating, 20 μl/well of ADB containing anti-acetylated histone H3 antibody (rabbit, 1:500) or anti-acetylated histone H4 antibody (rabbit, 1:500) was added and incubated for two hours at room temperature. Wells were aspirated and washed twice with 80 μl of ADB. After aspirating, 20 μl/well of ADB containing anti-rabbit IgG-HRP conjugated antibody (1:1000) was added and incubated for two hours (room temperature). For the AcTubulin and AcLysine assays, plates were washed three times with TBS before adding 20 μl/well of enhanced chemiluminescent (ECL) mixture. For the AcHistH3 and AcHistH4 assays, plates were washed three times with 80 μl TBS with 1% Triton X-100 and once with 80 μl TBS before adding 20 μl/well of ECL mixture. Plates were read on an Analyst plate reader (LJL Biosystems) with an integration time of 0.1 seconds.
(§2) 1,3-dioxanes from single polystyrene macrobeads were prepared as 1-2 mM stock solutions in DMSO as described [Hubbert, C., Guardiola, A., Shao, R., Kawaguchi, Y., Ito, A., Nixon, A., Yoshida, M., Wang, X. F., and Yao, T. P. (2002). HDAC6 is a microtubule-associated deacetylase. Nature 417, 455-458]. Bead decoding and structure determination were as described [See for example, Hubbert, C., Guardiola, A., Shao, R., Kawaguchi, Y., Ito, A., Nixon, A., Yoshida, M., Wang, X. F., and Yao, T. P. (2002). HDAC6 is a microtubule-associated deacetylase. Nature 417, 455-458; and Piperno, G., LeDizet, M., and Chang, X. J. (1987). Microtubules containing acetylated alpha-tubulin in mammalian cells in culture. J. Cell Biol. 104, 289-302]. Small molecules (˜2-5 μM) of interest were retested using a sample from the plate of stock solutions by fluorescence microscopy and comparison to the effects of trichostatin (300 nM to 1 μM).
(§3) A549 cells were seeded at a density of 50,000/200 μl in DMEM+ on the surface of glass coverslips on top of Parafilm in a 10 cm dish and allowed to attach overnight. For detection of acetylated α-tubulin, cells were permeabilized and fixed with 100 mM K-PIPES, pH 6.8, 10 mM EGTA, 1 mM MgCl2, 0.2% triton X-100, 0.2% glutaraldehyde for fifteen minutes. […]

α-tubulin deacetylation = experiment: acetylated α-tubulin in cells (AcTubulin cytoblot, immunofluorescence, Western blot); type: cell-based, human; details: for effect on tubulin deacetylation / α-tubulin acetylation in cells: A549 (also BS-C-1) cells, tubacin/JCWII114, niltubacin/JCWII153 2 μM, TSA 100 nM-4 μM, library ~2-5 μM, 18 h
Protocol: as §1, §2, §3

[1] = system: mouse embryonic stem cells; experiment: genome-wide transcriptional profiling (U74Av2 chip); type: cell-based; details: TSA 300 nM, tubacin 2 μM
Protocol: Gene expression analysis of tubacin, TSA, and DMSO-treated mouse embryonic stem cells were performed according to the Affymetrix protocol using an U74Av2 chip as described in full (K. M. Koeller et al., Chemistry & Biology, 10 (5) (2003) pp. 397-410). Present calls were determined by accompanying software and data analysis, including array normalization and clustering, performed using dChip software [C. Li and W. H. Wong, Genome Biol. 2, 32 (2001); and E. E. Schadt, C. Li, B. Ellis and W. H. Wong, J. Cell Biochem. Suppl. 37, 120 (2001)].

CC(/C=C/C(=O)NO)=C\[C@@H](C)C(=O)c1ccc(N(C)C)cc1 [TSA, trichostatin A, reference compound]
effect on histone deacetylation / lysine or histone acetylation in cells (histone deacetylation): an inhibitor of both α-tubulin and histone deacetylation | effect on tubulin deacetylation / α-tubulin acetylation in cells (α-tubulin deacetylation): an inhibitor of both α-tubulin and histone deacetylation; also recorded: Increased α-tubulin acetylation upon TSA (4 μM) treatment (24 h) | number of genes with altered expression above a 1.3-fold threshold [1]: 232 genes

O=C(CCCCCCC(=O)Nc1ccc([C@@H]2OC(c3ccc(CO)cc3)C[C@H](CSc3nc(-c4ccccc4)c(-c4ccccc4)o3)O2)cc1)NO (some centres unmarked) [tubacin]
effect on histone deacetylation / lysine or histone acetylation in cells (histone deacetylation): did not affect histone acetylation | effect on histone deacetylation / lysine or histone acetylation in cells (histone deacetylation; listed as 415 N3): no effect on lysine acetylation | effect on histone deacetylation / lysine or histone acetylation in cells (histone deacetylation; listed as JCWII114): no visible effect on histone deacetylation | effect on tubulin deacetylation / α-tubulin acetylation in cells (α-tubulin deacetylation): Increased acetylated α-tubulin induced by tubacin; also recorded: Reversibility of tubacin-induced (2 μM; 5 h) α-tubulin acetylation; also recorded: strongly increased α-tubulin acetylation levels; also recorded: potent (FIG. 41E), selective (FIG. 41F; FIG. 46A), and reversible (FIG. 46B) inhibitor of α-tubulin deacetylation; also recorded: always increased α-tubulin acetylation levels | effect on tubulin deacetylation / α-tubulin acetylation in cells (α-tubulin deacetylation; listed as 415 N3): strongly increased α-tubulin acetylation | effect on tubulin deacetylation / α-tubulin acetylation in cells (α-tubulin deacetylation; listed as JCWII114): potently and selectively inhibited tubulin deacetylation | concentration at which α-tubulin acetylation is increased (α-tubulin deacetylation; A549 cells, 4 h, data not shown): ≥ 125 nM | number of genes with altered expression above a 1.3-fold threshold [1]: no genes showed a significant alteration in expression
